From ChEMBL document CHEMBL1201862, “PubChem BioAssay data set” (2004)
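Results reflect a 48-hour exposure of cells in 96-well plates to compound at five concentrations. Here, GI50 denotes the concentration required for 50% inhibition of growth.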 Activity calls are given as the source filed them. Rule as the data show it: active = GI50 up to about 1.1 µM and inactive = higher.

Assays:
Experiment in all cases: DTP human tumour cell line panel, 48 h
UACC-257 = tested on: UACC-257
NCI-H460 = tested on: NCI-H460
SF-539 = tested on: SF-539
BT-549 = tested on: BT-549
A549 = tested on: A549
IGROV-1 = tested on: IGROV-1
HCT-116 = tested on: HCT-116
COLO 205 = tested on: COLO 205
Malme-3M = tested on: Malme-3M
SNB-19 = tested on: SNB-19
SF-268 = tested on: SF-268
MDA-MB-231 = tested on: MDA-MB-231
KM12 = tested on: KM12
OVCAR-4 = tested on: OVCAR-4
NCI/ADR-RES = tested on: NCI/ADR-RES
ACHN = tested on: ACHN
UACC-62 = tested on: UACC-62
CCRF-CEM = tested on: CCRF-CEM
SF-295 = tested on: SF-295
A498 = tested on: A498

SMILES	GI50 (UACC-257)	GI50 (NCI-H460)	GI50 (SF-539)	GI50 (BT-549)	GI50 (A549)	GI50 (IGROV-1)	GI50 (HCT-116)	GI50 (COLO 205)	GI50 (Malme-3M)	GI50 (SNB-19)	GI50 (SF-268)	GI50 (MDA-MB-231)	GI50 (KM12)	GI50 (OVCAR-4)	GI50 (NCI/ADR-RES)	GI50 (ACHN)	GI50 (UACC-62)	GI50 (CCRF-CEM)	GI50 (SF-295)	GI50 (A498)
N#Cc1c(N)nc(Sc2ccccc2N)c(C#N)c1-c1ccccc1	24.9 µM (inactive)	14.8 µM (inactive)	26.9 µM (inactive)	10.8 µM (inactive)	19.4 µM (inactive)	16.9 µM (inactive)	15.7 µM (inactive)	35.7 µM (inactive)	16.9 µM (inactive)	29.4 µM (inactive)	17.8 µM (inactive)	14 µM (inactive)	17.8 µM (inactive)	15.9 µM (inactive)	11.5 µM (inactive)	19.9 µM (inactive)	10.3 µM (inactive)			
OC1CN2CCS[C@H]2C(O)C1O (stereo partly specified)	> 100 µM (inactive)	> 100 µM (inactive)		> 100 µM (inactive)	> 100 µM (inactive)	> 100 µM (inactive)	> 100 µM (inactive)	> 100 µM (inactive)	> 100 µM (inactive)	> 100 µM (inactive)	> 100 µM (inactive)	> 100 µM (inactive)	> 100 µM (inactive)	> 100 µM (inactive)	> 100 µM (inactive)	> 100 µM (inactive)	> 100 µM (inactive)	> 100 µM (inactive)	> 100 µM (inactive)	> 100 µM (inactive)
Cc1ccc(/N=N/c2c(O)ccc3cc(S(=O)(=O)O)ccc23)cc1	> 100 µM (inactive)			> 100 µM (inactive)	> 100 µM (inactive)	64.3 µM (inactive)	24.2 µM (inactive)	73.5 µM (inactive)	> 100 µM (inactive)	> 100 µM (inactive)	85.5 µM (inactive)	18.8 µM (inactive)	74.6 µM (inactive)	> 100 µM (inactive)	> 100 µM (inactive)	> 100 µM (inactive)	> 100 µM (inactive)	> 100 µM (inactive)	> 100 µM (inactive)	
CCOC(=O)c1sc2nc(SC)nc3c2c1NC(=O)CN3c1ccc(F)cc1	68.7 µM (inactive)	> 100 µM (inactive)	15.9 µM (inactive)	19.5 µM (inactive)	18.6 µM (inactive)	> 100 µM (inactive)	26.4 µM (inactive)	68.9 µM (inactive)	48.4 µM (inactive)	27.8 µM (inactive)	20 µM (inactive)	26.9 µM (inactive)	> 100 µM (inactive)	21.4 µM (inactive)		21.6 µM (inactive)	47 µM (inactive)	30.1 µM (inactive)	20.1 µM (inactive)	47.6 µM (inactive)
Cc1ccc(Cc2nn(C)c(=O)n2-n2cccc2)cc1	56.8 µM (inactive)	> 100 µM (inactive)		> 100 µM (inactive)	> 100 µM (inactive)	> 100 µM (inactive)	> 100 µM (inactive)	> 100 µM (inactive)	> 100 µM (inactive)	> 100 µM (inactive)	> 100 µM (inactive)	> 100 µM (inactive)	> 100 µM (inactive)	> 100 µM (inactive)	> 100 µM (inactive)	> 100 µM (inactive)	> 100 µM (inactive)	> 100 µM (inactive)	> 100 µM (inactive)	> 100 µM (inactive)
CO/C(C)=N/CCC1=CCCCC1	> 100 µM (inactive)	> 100 µM (inactive)		> 100 µM (inactive)	> 100 µM (inactive)	> 100 µM (inactive)	> 100 µM (inactive)	> 100 µM (inactive)	> 100 µM (inactive)	> 100 µM (inactive)	> 100 µM (inactive)	> 100 µM (inactive)	> 100 µM (inactive)	> 100 µM (inactive)	> 100 µM (inactive)	> 100 µM (inactive)	> 100 µM (inactive)		55.5 µM (inactive)	> 100 µM (inactive)
S=C1N(c2ccc(Cl)cc2)C2=C(/N=N/c3ccccc3)C(=Nc3ccccc3S2)N1c1ccccn1	15.8 µM (inactive)	11 µM (inactive)	16.6 µM (inactive)	11.1 µM (inactive)	13.6 µM (inactive)	0.164 µM (active)	14.1 µM (inactive)	12.6 µM (inactive)	2.78 µM (inactive)	13.9 µM (inactive)	3.59 µM (inactive)	12.8 µM (inactive)	11.6 µM (inactive)		15.5 µM (inactive)	14.5 µM (inactive)		5.36 µM (inactive)	15.7 µM (inactive)	< 0.01 µM (active)
Cc1sc2nc(-c3cccc([N+](=O)[O-])c3)c(/C=N/N=C(N)N)n2c1C	1.67 µM (inactive)	1.81 µM (inactive)	1.95 µM (inactive)	1.5 µM (inactive)	1.66 µM (inactive)	1.32 µM (inactive)		1.83 µM (inactive)	2.08 µM (inactive)	1.76 µM (inactive)	1.93 µM (inactive)	1.75 µM (inactive)	1.71 µM (inactive)		8.13 µM (inactive)	1.71 µM (inactive)	1.75 µM (inactive)	1.74 µM (inactive)	1.54 µM (inactive)	1.55 µM (inactive)
COc1cc2c(cc1OC)CC1c3cc(OC)c(OC)cc3CCN1CC2 (stereo unspecified)	> 100 µM (inactive)	17.5 µM (inactive)	58.7 µM (inactive)	> 100 µM (inactive)	> 100 µM (inactive)	52.8 µM (inactive)	26.3 µM (inactive)	> 100 µM (inactive)		0.49 µM (active)	42.1 µM (inactive)	> 100 µM (inactive)	> 100 µM (inactive)	> 100 µM (inactive)	63.2 µM (inactive)	1.64 µM (inactive)	67 µM (inactive)	> 100 µM (inactive)	95.1 µM (inactive)	> 100 µM (inactive)
O=C(/C=C/c1ccc2c(c1)OCO2)Cc1nc2ccccc2[nH]c1=O	25.4 µM (inactive)	22.6 µM (inactive)	75 µM (inactive)	43.7 µM (inactive)	23.4 µM (inactive)	21 µM (inactive)	22.5 µM (inactive)	52.6 µM (inactive)	18.3 µM (inactive)	24.2 µM (inactive)	18.4 µM (inactive)	20.2 µM (inactive)	18.9 µM (inactive)		22.1 µM (inactive)	13.6 µM (inactive)	6.76 µM (inactive)	35.8 µM (inactive)	17.4 µM (inactive)	20.3 µM (inactive)
CCNC(=O)Nc1cccc(NC(=O)NCC)n1	92.9 µM (inactive)	> 100 µM (inactive)	> 100 µM (inactive)	> 100 µM (inactive)	> 100 µM (inactive)	> 100 µM (inactive)	> 100 µM (inactive)	> 100 µM (inactive)	> 100 µM (inactive)	> 100 µM (inactive)	> 100 µM (inactive)	> 100 µM (inactive)	> 100 µM (inactive)	> 100 µM (inactive)		> 100 µM (inactive)	36 µM (inactive)	> 100 µM (inactive)	> 100 µM (inactive)	60.1 µM (inactive)
COc1ccc2c(c1)/C(=C\c1c(Cl)[nH]c3ccccc13)C(=O)N2	6.14 µM (inactive)	3.98 µM (inactive)	3.61 µM (inactive)	3.3 µM (inactive)	4.99 µM (inactive)	1.21 µM (inactive)	2.57 µM (inactive)	2.27 µM (inactive)	5.92 µM (inactive)	6.62 µM (inactive)	4 µM (inactive)	4.47 µM (inactive)	3.05 µM (inactive)		2.81 µM (inactive)	5.25 µM (inactive)	5.16 µM (inactive)	3.21 µM (inactive)	1.97 µM (inactive)	8 µM (inactive)
COC(=O)c1c(C)[nH]c2c1cc(O)c1nc(C)c(C)nc12	> 100 µM (inactive)	> 100 µM (inactive)	34.3 µM (inactive)	> 100 µM (inactive)	> 100 µM (inactive)	> 100 µM (inactive)	42.2 µM (inactive)	> 100 µM (inactive)	> 100 µM (inactive)	> 100 µM (inactive)	49.2 µM (inactive)		> 100 µM (inactive)	> 100 µM (inactive)	> 100 µM (inactive)	35.5 µM (inactive)	43 µM (inactive)	> 100 µM (inactive)	23.6 µM (inactive)	14.8 µM (inactive)
Nc1ncnc2c1ncn2C1OC(CO)CC1O (stereo unspecified)	> 100 µM (inactive)		34.7 µM (inactive)	29.9 µM (inactive)	75.7 µM (inactive)	> 100 µM (inactive)	20 µM (inactive)	93.5 µM (inactive)		26.9 µM (inactive)	53.7 µM (inactive)	17.9 µM (inactive)	22 µM (inactive)	> 100 µM (inactive)	20.3 µM (inactive)	> 100 µM (inactive)	36.6 µM (inactive)	34.3 µM (inactive)	58.7 µM (inactive)	
O=C(CC(=O)N1N=C(N2CCCCC2)CC1c1ccccc1)Nc1ccc(Cl)cc1 (stereo unspecified)	> 100 µM (inactive)	> 100 µM (inactive)		> 100 µM (inactive)	> 100 µM (inactive)	> 100 µM (inactive)	> 100 µM (inactive)	> 100 µM (inactive)	> 100 µM (inactive)	> 100 µM (inactive)	> 100 µM (inactive)	> 100 µM (inactive)	> 100 µM (inactive)	> 100 µM (inactive)	> 100 µM (inactive)	> 100 µM (inactive)	> 100 µM (inactive)	> 100 µM (inactive)	> 100 µM (inactive)	> 100 µM (inactive)
